Measurements reported in patent US7671027B2, “Use of GnRH agonists to support the luteal phase during infertility treatment” (PregLem S.A., priority 2002, dated 2010).
Where two headings read alike, the source gives them in different places. Square brackets hold non-standard residues; d marks the D form. pGlu = O=C1CC[C@@H](C(=O)O)N1

Key:
[1] = tested on: patients suffering from unexplained infertility, mild to moderate endometrioisis or partner sperm alteration; test: Dose finding study: luteal phase duration and pregnancy outcome after ovarian stimulation and IUI; format: in vivo; settings: for Positive pregnancy test: patients positive/total, day 14 of luteal phase; for Clinical pregnancy: patients/total
Source text: (§1) Patients suffering from unexplained infertility, or from infertility resulting from mild to moderate endometrioisis, or an infertility resulting from a mild or moderate alteration of their partner sperm, and whom have not conceived despite regular sexual intercourses during a period of one or two years, usually undergo medical assistance. The most often used treatment is ovarian stimulation coupled to an IUI (Hughes G. H. 1997, The effectiveness of ovulation induction and intra-uterine insemination in the treatment of persistent infertility: a meta-analysis. Hum Reprod. 12: 1865-1872).
(§2) A prospective, randomised, parallel groups dose finding study was conducted in this patient population.
(§3) The number and the size of each follicle was recorded.
(§4) Between 12 and 48 hours after triggering ovulation, the patient's partner provided a sperm sample, after 2 to 5 days of abstinence. Motile sperm cells were separated from seminal fluid, dead sperm cells, leucocytes, and cellular debris using a suitable method such as a “swim-up” or a Percol gradient. On that same day, the motile sperm cell suspension was used to perform an intra-uterine insemination with a catheter inserted into the uterine cavity via the cervix. The procedure may be repeated on the next day.

[2] = tested on: patients who did not conceive; test: Dose finding study: luteal phase serum progesterone levels; format: in vivo, human
Source text: as §1, §2, §3, §4

[3] = tested on: patients who did not conceive; test: Dose finding study: luteal phase serum oestradiol levels; format: in vivo, human
Source text: as §1, §2, §3, §4

[4] = tested on: patients in ART treatments; settings: cited from earlier work
[5] = tested on: patients (hypothalamic amenorrhea); settings: nasal administration every 4 hours after IV GnRH induction of ovulation; in half of the patients; cited from earlier work
[6] = Day 0, buserelin 100 μg/2 days IN
[7] = Day 0, buserelin 100 μg/3 days IN
[8] = Day 1, buserelin 100 μg/2 days IN
[9] = Day 1, buserelin 100 μg/3 days IN
[10] = Day 4, buserelin 100 μg/2 days IN
[11] = Day 4, buserelin 100 μg/3 days IN
[12] = Day 7, buserelin 100 μg/2 days IN
[13] = Day 7, buserelin 100 μg/3 days IN
[14] = Day 9, buserelin 100 μg/2 days IN
[15] = Day 9, buserelin 100 μg/3 days IN
[16] = Day 11, buserelin 100 μg/2 days IN
[17] = Day 11, buserelin 100 μg/3 days IN
[18] = Day 11, buserelin 100 μg/day IN
[19] = Day 14, buserelin 100 μg/2 days IN
[20] = Day 14, buserelin 100 μg/3 days IN
[21] = Day 14, buserelin 100 μg/day IN

Which results are given for CCNC(=O)[C@@H]1CCCN1C(=O)[C@H](CCCNC(=N)N)NC(=O)[C@H](CC(C)C)NC(=O)[C@@H](COC(C)(C)C)NC(=O)[C@H](Cc1ccc(O)cc1)NC(=O)[C@H](CO)NC(=O)[C@H](Cc1c[nH]c2ccccc12)NC(=O)[C@H](Cc1cnc[nH]1)NC(=O)[C@@H]1CCC(=O)N1 [Buserelin, <Glu^1-His^2-Trp^3-Ser^4-Tyr^5-D-Ser(t-But)^6-Leu^7-Arg^8-Pro^9-EA (SEQ ID NO: 2)]?
luteal support, summary of tables 1-3 ([1]; buserelin 100 μg IN once a day for 14 days, compared with the other groups): a longer luteal phase, higher progesterone and oestradiol levels in late luteal phase and a trend toward a higher clinical pregnancy rate; Positive pregnancy test ([1]; buserelin 100 μg/2 days IN): 2/6; Clinical pregnancy ([1]; buserelin 100 μg/2 days IN): 1/6; Positive pregnancy test ([1]; buserelin 100 μg/3 days IN): 1/5; Clinical pregnancy ([1]; buserelin 100 μg/3 days IN): 0/5; Positive pregnancy test ([1]; buserelin 100 μg/day IN): 2/6; Clinical pregnancy ([1]; buserelin 100 μg/day IN): 2/6; Luteal phase duration (mean ± SD) ([1]; buserelin 200 μg IN trigger, then 100 μg/day IN for 14 days, n=6): 15.3 ± 0.5 days; adverse local reactions of intra-nasal administration ([1]; self-administered intra-nasal buserelin 100 μg): did not carry the risk of adverse local reactions such as pain and abces; Luteal phase serum progesterone level (mean ± SD) [2, 6]: 0.9 ± 0.7 ng/mL; Luteal phase serum progesterone level (mean ± SD) [2, 7]: 0.7 ± 0.3 ng/mL; Luteal phase serum progesterone level (mean ± SD) ([2]; Day 0, buserelin 100 μg/day IN): 1.1 ± 0.4 ng/mL; Luteal phase serum progesterone level (mean ± SD) [2, 8]: 1.3 ± 0.8 ng/mL; Luteal phase serum progesterone level (mean ± SD) [2, 9]: 0.9 ± 0.2 ng/mL; Luteal phase serum progesterone level (mean ± SD) ([2]; Day 1, buserelin 100 μg/day IN): 1.2 ± 0.3 ng/mL; Luteal phase serum progesterone level (mean ± SD) [2, 10]: 7.6 ± 3.2 ng/mL; Luteal phase serum progesterone level (mean ± SD) [2, 11]: 5.1 ± 2.0 ng/mL; Luteal phase serum progesterone level (mean ± SD) ([2]; Day 4, buserelin 100 μg/day IN): 6.2 ± 2.3 ng/mL; Luteal phase serum progesterone level (mean ± SD) [2, 12]: 11.7 ± 4.6 ng/mL; Luteal phase serum progesterone level (mean ± SD) [2, 13]: 11.5 ± 3.6 ng/mL; Luteal phase serum progesterone level (mean ± SD) ([2]; Day 7, buserelin 100 μg/day IN): 13.9 ± 2.9 ng/mL; Luteal phase serum progesterone level (mean ± SD) [2, 14]: 8.2 ± 6.4 ng/mL; Luteal phase serum progesterone level (mean ± SD) [2, 15]: 10.8 ± 6.6 ng/mL; Luteal phase serum progesterone level (mean ± SD) ([2]; Day 9, buserelin 100 μg/day IN): 16.2 ± 7.5 ng/mL; Luteal phase serum progesterone level (mean ± SD) [2, 16]: 8.3 ± 6.5 ng/mL; Luteal phase serum progesterone level (mean ± SD) [2, 17]: 10.0 ± 3.7 ng/mL; Luteal phase serum progesterone level (mean ± SD) [2, 18]: 14.1 ± 3.3 ng/mL; Luteal phase serum progesterone level (mean ± SD) [2, 19]: 5.8 ± 4.7 ng/mL; Luteal phase serum progesterone level (mean ± SD) [2, 20]: 3.3 ± 2.4 ng/mL; Luteal phase serum progesterone level (mean ± SD) [2, 21]: 8.4 ± 4.3 ng/mL; Luteal phase serum oestradiol level (mean ± SD) [3, 6]: 247 ± 79 pg/mL; Luteal phase serum oestradiol level (mean ± SD) [3, 7]: 182 ± 76 pg/mL; Luteal phase serum oestradiol level (mean ± SD) ([3]; Day 0, buserelin 100 μg/day IN): 175 ± 071 pg/mL; Luteal phase serum oestradiol level (mean ± SD) [3, 8]: 164 ± 75 pg/mL; Luteal phase serum oestradiol level (mean ± SD) [3, 9]: 325 ± 160 pg/mL; Luteal phase serum oestradiol level (mean ± SD) [3, 10]: 139 ± 77 pg/mL; Luteal phase serum oestradiol level (mean ± SD) [3, 11]: 106 ± 61 pg/mL; Luteal phase serum oestradiol level (mean ± SD) ([3]; Day 4, buserelin 100 μg/day IN): 179 ± 101 pg/mL; Luteal phase serum oestradiol level (mean ± SD) [3, 12]: 70 ± 19 pg/mL; Luteal phase serum oestradiol level (mean ± SD) [3, 13]: 144 ± 118 pg/mL; Luteal phase serum oestradiol level (mean ± SD) ([3]; Day 7, buserelin 100 μg/day IN): 163 ± 30 pg/mL; Luteal phase serum oestradiol level (mean ± SD) [3, 14]: 65 ± 15 pg/mL; Luteal phase serum oestradiol level (mean ± SD) [3, 15]: 109 ± 88 pg/mL; Luteal phase serum oestradiol level (mean ± SD) ([3]; Day 9, buserelin 100 μg/day IN): 232 ± 77 pg/mL; Luteal phase serum oestradiol level (mean ± SD) [3, 16]: 75 ± 4 pg/mL; Luteal phase serum oestradiol level (mean ± SD) [3, 17]: 123 ± 61 pg/mL; Luteal phase serum oestradiol level (mean ± SD) [3, 18]: 200 ± 30 pg/mL; Luteal phase serum oestradiol level (mean ± SD) [3, 19]: 124 ± 68 pg/mL; Luteal phase serum oestradiol level (mean ± SD) [3, 20]: 82 ± 31 pg/mL; Luteal phase serum oestradiol level (mean ± SD) [3, 21]: 154 ± 85 pg/mL

Which “relative efficacy of IM progesterone vs vaginal progesterone” value ([4]; C.I. of 1.02-1.75, in favor of the IM route (p<0.05)) does the source give for CC(=O)[C@H]1CC[C@H]2[C@@H]3CCC4=CC(=O)CC[C@]4(C)[C@H]3CC[C@]12C [progesterone] here?
The value was 1.33.

And the “odds to obtain a pregnancy compared to no luteal support” value ([4]; progesterone IM, CI: 1.36-4.27, p<0.05)?
The value was 2.38.

And the “odds to obtain a pregnancy compared to no luteal support” value ([4]; vaginal route, C.I. of 0.95-4.67 (NS))?
Its value is 2.11.

Which “support of the luteal phase” value [5] does the source give for “<Glu^1-His^2-Trp^3-Ser^4-Tyr^5-His^6-Leu^7-Arg^8-Pro^9-Gly^10-NH2 (SEQ ID NO: 1) ([pGlu]HWSYHLRPG-NH2; SMILES CC(C)C[C@H](NC(=O)[C@H](Cc1c[nH]cn1)NC(=O)[C@H](Cc1ccc(O)cc1)NC(=O)[C@H](CO)NC(=O)[C@H](Cc1c[nH]c2ccccc12)NC(=O)[C@H](Cc1c[nH]cn1)NC(=O)[C@@H]1CCC(=O)N1)C(=O)N[C@@H](CCCNC(=N)N)C(=O)N1CCC[C@H]1C(=O)NCC(N)=O; listed as Homo sapiens) [native GnRH, synthetic, native GnRH decapeptide]” here?
The value was “completely ineffective”.
